Test results taken from article PMC7413254 (Nature Communications, 2020).

Legend:
Format in all cases: cell-based
PfCRT^3D7 = PfCRT^3D7 (Plasmodium falciparum, UniProt Q8IBZ9); assay: cell-based; settings: PfCRT3D7 oocytes, normalised to oocyte type control
Experimental: (§1) Unless specified otherwise, the transport assays were conducted over 1.5 h at 27.5 °C and the reaction buffer was ND96 (96 mM NaCl, 2 mM KCl, 1 mM MgCl2, 1.8 mM CaCl2, 10 mM MES and 10 mM Tris-base) at pH 5.5.
(§2) The intracellular concentrations were calculated using previous estimates of the volume of stage V–VI oocytes (~400 nL[60]). […] The oocytes were injected with VF-6 suspended in 25 nL ND96 buffer adjusted to pH 5.0, 5.5, 6.0 or 7.0, which corresponded to the injection of 2.5–250 fmol of H^+. The Na^+-dependence of the trans-stimulatory effect of VF-6 was assessed by injecting the oocytes with VF-6 suspended in ND96 buffer (pH 5.5) or a Na^+-free version of this buffer (the Na^+ was replaced with choline).
(§3) At least four independent experiments were performed (on different days and using oocytes from different frogs), and within each experiment measurements were made from ten oocytes per treatment.

PfCRT^Dd2 [1] = target: T1, PfCRT^Dd2 (Plasmodium falciparum, UniProt Q9N623, A220S/I356T/K76T/M74I/N326S/N75E/Q271E/R371I); assay: cell-based; settings: for PfCRT-mediated [3H]CQ transport, trans-stimulation (% PfCRTDd2 control): PfCRTDd2 oocytes, normalised to oocyte type control; for [3H]CQ transport (% PfCRTDd2 control), trans-stimulation, PfCRTDd2: PfCRT-mediated component (background subtracted), mean ± SEM, SEM
T1 sequence (Q9N623 whole entry A220S/I356T/K76T/M74I/N326S/N75E/Q271E/R371I): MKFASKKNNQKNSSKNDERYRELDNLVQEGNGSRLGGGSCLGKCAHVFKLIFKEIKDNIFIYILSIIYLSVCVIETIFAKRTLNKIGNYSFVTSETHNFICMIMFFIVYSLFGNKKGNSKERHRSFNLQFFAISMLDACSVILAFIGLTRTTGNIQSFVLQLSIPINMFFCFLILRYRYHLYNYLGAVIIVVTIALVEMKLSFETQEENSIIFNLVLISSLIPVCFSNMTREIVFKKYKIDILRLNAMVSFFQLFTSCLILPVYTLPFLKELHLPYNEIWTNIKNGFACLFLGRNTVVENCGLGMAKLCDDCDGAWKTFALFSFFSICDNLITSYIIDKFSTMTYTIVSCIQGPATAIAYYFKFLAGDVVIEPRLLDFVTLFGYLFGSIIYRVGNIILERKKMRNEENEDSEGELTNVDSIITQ
Experimental: as §1, §2, §3

PfCRT^Ecu1110 [2] = target: T2, PfCRT^Ecu1110 (Plasmodium falciparum, UniProt Q9N623, A220S/I356L/K76T/N326D); assay: cell-based; settings: for PfCRT-mediated [3H]CQ transport, trans-stimulation (% PfCRTEcu1110 control): PfCRTEcu1110 oocytes, normalised to oocyte type control; for [3H]CQ transport (% PfCRTDd2 control), trans-stimulation, PfCRTEcu1110: PfCRT-mediated component (background subtracted), sheet title says normalised to PfCRTDd2 control, mean ± SEM, SEM
T2 sequence (Q9N623 whole entry A220S/I356L/K76T/N326D): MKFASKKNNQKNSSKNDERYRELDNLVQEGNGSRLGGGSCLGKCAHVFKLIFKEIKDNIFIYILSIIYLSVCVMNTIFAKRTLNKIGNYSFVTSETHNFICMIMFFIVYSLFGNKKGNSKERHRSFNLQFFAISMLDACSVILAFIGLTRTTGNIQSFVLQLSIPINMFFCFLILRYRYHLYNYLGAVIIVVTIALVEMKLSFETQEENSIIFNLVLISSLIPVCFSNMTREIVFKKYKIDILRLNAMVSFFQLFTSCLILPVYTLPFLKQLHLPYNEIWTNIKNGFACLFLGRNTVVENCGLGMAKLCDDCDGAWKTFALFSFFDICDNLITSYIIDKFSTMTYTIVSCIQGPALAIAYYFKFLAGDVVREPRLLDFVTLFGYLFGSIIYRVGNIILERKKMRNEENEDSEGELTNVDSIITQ
Experimental: as §1, §2, §3

PfCRT^Dd2 [3] = target: T1, PfCRT^Dd2; assay: [3H]CQ uptake into Xenopus oocytes, cis-inhibition by unlabelled solute; settings: PfCRTDd2 oocytes, background [3H]CQ accumulation subtracted, normalised to oocyte type control
Text: (§4) The orientation of PfCRT in the parasite’s DV membrane, and also in the oocyte plasma membrane, is such that its N- and C-termini extend into the cytosol. The oocytes were suspended in a reaction buffer adjusted to pH 5.5 to mimic the pH of the DV lumen[1],[2]. In this scenario, the transport of a substrate via PfCRT from the acidic extracellular solution into the oocyte cytosol[15] is analogous to the parasite’s PfCRT-mediated efflux of a substrate from the acidic DV and into the cytosol. Unless specified otherwise, this is the direction in which substrate transport was measured in the oocyte assays.
as §1
(§5) Ten oocytes were washed twice with the relevant ND96 buffer. […] The assay was terminated by removing the reaction buffer and washing the oocytes with ice-cold ND96 buffer. The oocytes were lysed in 10% (w/v) sodium dodecyl sulfate (SDS) and the radioactivity accumulated within each oocyte was measured with a MicroBeta^2 microplate liquid scintillation analyser (PerkinElmer).
as §3

PfCRT^Ecu1110 [4] = target: T2, PfCRT^Ecu1110; assay: as above; settings: for PfCRT-mediated [3H]CQ transport, cis-inhibition (% PfCRTEcu1110 control): PfCRTEcu1110 oocytes, background [3H]CQ accumulation subtracted, normalised to oocyte type control; for [3H]CQ transport (% PfCRTEcu1110 control), cis-inhibition, PfCRTEcu1110: PfCRT-mediated component (background subtracted), sheet title says normalised to PfCRTDd2 control, mean ± SEM, SEM
Text: as §4, §1, §5, §3

[5] = [test solute]i = 5 mM (intracellular)
[6] = [test solute]i = 45 mM (intracellular; 30 mM for some solutes due to solubility)
[7] = [test solute]i = 5 mM (injected)
[8] = [test solute]i = 45 mM (30 mM for some solutes due to solubility)

Chain of PfCRT^3D7 (Q8IBZ9 59-398): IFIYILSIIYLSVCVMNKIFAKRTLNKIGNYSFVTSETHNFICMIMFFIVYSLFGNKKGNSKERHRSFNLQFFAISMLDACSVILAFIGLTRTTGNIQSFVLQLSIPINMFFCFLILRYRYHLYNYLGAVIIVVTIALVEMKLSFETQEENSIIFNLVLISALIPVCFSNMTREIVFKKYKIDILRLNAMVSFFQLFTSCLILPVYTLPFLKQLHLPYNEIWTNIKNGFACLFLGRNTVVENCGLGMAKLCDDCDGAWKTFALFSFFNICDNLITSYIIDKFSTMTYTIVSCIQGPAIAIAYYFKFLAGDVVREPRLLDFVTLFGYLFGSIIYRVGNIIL

Substance | PfCRT-mediated [3H]CQ transport, trans-stimulation (% PfCRT3D7 control) (PfCRT^3D7; [5]) | PfCRT-mediated [3H]CQ transport, trans-stimulation (% PfCRT3D7 control) (PfCRT^3D7; [6]) | PfCRT-mediated [3H]CQ transport, trans-stimulation (% PfCRTDd2 control) (PfCRT^Dd2 [1]; [5]) | PfCRT-mediated [3H]CQ transport, trans-stimulation (% PfCRTDd2 control) (PfCRT^Dd2 [1]; [6]) | [3H]CQ transport (% PfCRTDd2 control), trans-stimulation, PfCRTDd2 (PfCRT^Dd2 [1]; [7]) [% PfCRTDd2 control] | [3H]CQ transport (% PfCRTDd2 control), trans-stimulation, PfCRTDd2 (PfCRT^Dd2 [1]; [8]) [% PfCRTDd2 control] | PfCRT-mediated [3H]CQ transport, trans-stimulation (% PfCRTEcu1110 control) (PfCRT^Ecu1110 [2]; [5]) | PfCRT-mediated [3H]CQ transport, trans-stimulation (% PfCRTEcu1110 control) (PfCRT^Ecu1110 [2]; [6]) | [3H]CQ transport (% PfCRTDd2 control), trans-stimulation, PfCRTEcu1110 (PfCRT^Ecu1110 [2]; [7]) [% PfCRTEcu1110 control] | [3H]CQ transport (% PfCRTDd2 control), trans-stimulation, PfCRTEcu1110 (PfCRT^Ecu1110 [2]; [8]) [% PfCRTEcu1110 control] | PfCRT-mediated [3H]CQ transport, cis-inhibition (% PfCRTDd2 control) (PfCRT^Dd2 [3]; [test solute] = 0.5 mM) | PfCRT-mediated [3H]CQ transport, cis-inhibition (% PfCRTDd2 control) (PfCRT^Dd2 [3]; [test solute] = 1 mM) | PfCRT-mediated [3H]CQ transport, cis-inhibition (% PfCRTDd2 control) (PfCRT^Dd2 [3]; [test solute] = 2 mM) | PfCRT-mediated [3H]CQ transport, cis-inhibition (% PfCRTEcu1110 control) (PfCRT^Ecu1110 [4]; [test solute] = 0.5 mM) | PfCRT-mediated [3H]CQ transport, cis-inhibition (% PfCRTEcu1110 control) (PfCRT^Ecu1110 [4]; [test solute] = 1 mM) | PfCRT-mediated [3H]CQ transport, cis-inhibition (% PfCRTEcu1110 control) (PfCRT^Ecu1110 [4]; [test solute] = 2 mM) | [3H]CQ transport (% PfCRTEcu1110 control), cis-inhibition, PfCRTEcu1110 (PfCRT^Ecu1110 [4]; [test solute] = 0.5 mM) [% PfCRTEcu1110 control] | [3H]CQ transport (% PfCRTEcu1110 control), cis-inhibition, PfCRTEcu1110 (PfCRT^Ecu1110 [4]; [test solute] = 1 mM) [% PfCRTEcu1110 control] | [3H]CQ transport (% PfCRTEcu1110 control), cis-inhibition, PfCRTEcu1110 (PfCRT^Ecu1110 [4]; [test solute] = 2 mM) [% PfCRTEcu1110 control]
YIGSR [YR-5] | 98 ± 2.6 | 94 ± 2.1 | 94 ± 4.6 | 96 ± 4.1 | 94 ± 4.6 | 96 ± 4.1 | 98 ± 4.2 | 96 ± 3.5 | 30 ± 1.7 | 29 ± 1.3 | 73 ± 3.9 | 58 ± 3.1 | 61 ± 2.9 | 71 ± 1.6 | 55 ± 1.4 | 49 ± 2.4 | 22 ± 0.1 | 17 ± 0.4 | 15 ± 0.1
VDEVGG [VG-6] | 140 ± 4.4 | 190 ± 3.6 | 102 ± 4.7 | 112 ± 0.9 | 102 ± 4.7 | 112 ± 0.9 | 128 ± 4.2 | 139 ± 4.6 | 39 ± 1.5 | 42 ± 2.6 | 55 ± 1.8 | 44 ± 2.7 | 38 ± 1.3 | 61 ± 3.5 | 51 ± 2.6 | 39 ± 1.4 | – | 16 ± 0.1 | 12 ± 0.02
